Measured values reported in ChEMBL document CHEMBL4507278 (2021).

Columns and labels:
[1] = target: Sodium-dependent dopamine transporter (Homo sapiens) (UniProt Q01959); experiment: DATRANS/H Eurofins-Panlabs selectivity data (BI); details: Compound concentration 10.0 uM
[2] = target: P2X purinoceptor (Oryctolagus cuniculus) (UniProt G1U3D6); experiment: P2X/RB Eurofins-Panlabs selectivity data (BI); details: Compound concentration 10.0 uM
[3] = target: T1, C-C chemokine receptor type 1 (Homo sapiens) (UniProt P32246); experiment: CCR1 Eurofins-Panlabs selectivity data (BI)
T1 sequence (whole entry): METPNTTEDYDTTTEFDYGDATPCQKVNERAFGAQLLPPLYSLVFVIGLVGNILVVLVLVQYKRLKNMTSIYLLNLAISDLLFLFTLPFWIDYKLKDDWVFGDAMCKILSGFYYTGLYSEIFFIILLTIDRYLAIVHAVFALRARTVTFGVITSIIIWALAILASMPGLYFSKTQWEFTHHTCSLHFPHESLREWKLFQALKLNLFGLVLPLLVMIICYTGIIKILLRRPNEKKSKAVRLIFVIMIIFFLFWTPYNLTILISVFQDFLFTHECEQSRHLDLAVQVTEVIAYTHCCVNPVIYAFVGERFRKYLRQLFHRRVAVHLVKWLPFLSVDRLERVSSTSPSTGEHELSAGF

[4] = target: Glutamate receptor ionotropic, NMDA 2A (Rattus norvegicus) (UniProt Q00959); experiment: NMDAPHSI/R Eurofins-Panlabs selectivity data (BI); details: Compound concentration 10.0 uM
[5] = target: T2, Beta-1 adrenergic receptor (Homo sapiens, UniProt P08588); experiment: BETA1/HU Eurofins-Panlabs selectivity data (BI); details: Compound concentration 10.0 uM
[6] = target: T3, 5-hydroxytryptamine receptor 1A (Homo sapiens) (UniProt P08908); experiment: 5HT1A/HU Eurofins-Panlabs selectivity data (BI); details: Compound concentration 10.0 uM
T3 sequence (whole entry): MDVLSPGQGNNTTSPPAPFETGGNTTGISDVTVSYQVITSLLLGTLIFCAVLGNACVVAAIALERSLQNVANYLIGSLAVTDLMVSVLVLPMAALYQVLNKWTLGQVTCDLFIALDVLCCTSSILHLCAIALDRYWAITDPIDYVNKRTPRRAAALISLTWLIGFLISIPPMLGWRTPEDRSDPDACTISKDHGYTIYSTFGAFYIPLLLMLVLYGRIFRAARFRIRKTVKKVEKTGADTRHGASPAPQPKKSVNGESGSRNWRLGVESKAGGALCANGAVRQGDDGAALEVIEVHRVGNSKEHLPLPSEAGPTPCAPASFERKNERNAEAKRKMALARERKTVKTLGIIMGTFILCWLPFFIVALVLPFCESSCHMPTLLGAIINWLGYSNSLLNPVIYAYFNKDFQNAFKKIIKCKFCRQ

[7] = target: 3',5'-cyclic-AMP phosphodiesterase 4A (Rattus norvegicus) (UniProt P54748); experiment: ROLIPRAM/R Eurofins-Panlabs selectivity data (BI); details: Compound concentration 10.0 uM
[8] = target: T2, Beta-1 adrenergic receptor; experiment: GPCRScan assay: inhibition of Beta1; design: radioligand conc. used [nm] 0.1 – 0.2, parental cells CHO Flp-In
[9] = target: Muscarinic acetylcholine receptor M3 (Homo sapiens) (UniProt P20309); experiment: M3/HU Eurofins-Panlabs selectivity data (BI); details: Compound concentration 10.0 uM
[10] = target: Alpha-1B adrenergic receptor (Rattus norvegicus) (UniProt P15823); experiment: ALPHA1B/R Eurofins-Panlabs selectivity data (BI); details: Compound concentration 10.0 uM
[11] = target: Beta-2 adrenergic receptor (Homo sapiens) (UniProt P07550); experiment: BETA2/HU Eurofins-Panlabs selectivity data (BI); details: Compound concentration 10.0 uM
[12] = target: Interleukin-1 receptor type 1 (Mus musculus) (UniProt P13504); experiment: IL-1 Eurofins-Panlabs selectivity data (BI); details: Compound concentration 10.0 uM
[13] = target: Estrogen receptor (Homo sapiens) (UniProt P03372); experiment: ERALPHA/H Eurofins-Panlabs selectivity data (BI); details: Compound concentration 10.0 uM
[14] = target: B1 bradykinin receptor (Homo sapiens) (UniProt P46663); experiment: B1/H Eurofins-Panlabs selectivity data (BI); details: Compound concentration 10.0 uM
[15] = target: T4, Alpha-1D adrenergic receptor (Homo sapiens) (UniProt P25100); experiment: ALPHA1D/H Eurofins-Panlabs selectivity data (BI); details: Compound concentration 10.0 uM
T4 sequence (whole entry): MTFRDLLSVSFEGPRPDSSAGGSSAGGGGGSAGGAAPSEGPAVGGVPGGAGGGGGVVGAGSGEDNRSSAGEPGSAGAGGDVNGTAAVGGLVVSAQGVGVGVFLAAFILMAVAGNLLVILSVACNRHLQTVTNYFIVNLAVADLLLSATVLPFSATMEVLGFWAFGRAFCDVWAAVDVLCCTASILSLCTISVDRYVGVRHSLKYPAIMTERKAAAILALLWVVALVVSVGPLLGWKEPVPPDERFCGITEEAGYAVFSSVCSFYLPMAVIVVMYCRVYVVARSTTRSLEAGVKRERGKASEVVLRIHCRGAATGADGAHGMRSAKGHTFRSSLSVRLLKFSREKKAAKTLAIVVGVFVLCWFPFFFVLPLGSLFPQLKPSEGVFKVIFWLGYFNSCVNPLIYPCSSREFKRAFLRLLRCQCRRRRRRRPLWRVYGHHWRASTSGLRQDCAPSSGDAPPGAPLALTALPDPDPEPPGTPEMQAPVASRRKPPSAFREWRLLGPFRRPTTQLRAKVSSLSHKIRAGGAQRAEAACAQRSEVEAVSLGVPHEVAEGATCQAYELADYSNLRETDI

[16] = target: Cysteinyl leukotriene receptor 1 (Homo sapiens) (UniProt Q9Y271); experiment: CYSLT1_HS Eurofins-Panlabs selectivity data (BI); details: Compound concentration 10.0 uM
[17] = target: Adenosine receptor A3 (Homo sapiens) (UniProt P0DMS8); experiment: A3/H Eurofins-Panlabs selectivity data (BI); details: Compound concentration 10.0 uM
[18] = target: ATP-sensitive inward rectifier potassium channel 1 isoform X1 (Mesocricetus auratus) (UniProt A0A1U8CU73); experiment: K+/KATP/HA Eurofins-Panlabs selectivity data (BI); details: Compound concentration 10.0 uM
[19] = target: RAC-beta serine/threonine-protein kinase (Homo sapiens) (UniProt P31751); details: Compound concentration 1000.0 nM
[20] = system: Epidermal growth factor receptor (Homo sapiens), P00533 [UNDEFINED MUTATION]; details: Compound concentration 1000.0 nM
[21] = target: Serine/threonine-protein kinase ULK2 (Homo sapiens) (UniProt Q8IYT8); details: Compound concentration 1000.0 nM
[22] = target: Ephrin type-A receptor 7 (Homo sapiens) (UniProt Q15375); details: Compound concentration 1000.0 nM
[23] = target: 5-hydroxytryptamine receptor 6 (Homo sapiens) (UniProt P50406); details: Compound concentration 10.0 uM
[24] = target: C-C chemokine receptor type 1 (Homo sapiens, UniProt P32246); experiment: Ca flux
[25] = target: Homeodomain-interacting protein kinase 1 (Homo sapiens) (UniProt Q86Z02); details: Compound concentration 1000.0 nM
[26] = target: Serine/threonine-protein kinase/endoribonuclease IRE1 (Homo sapiens) (UniProt O75460); details: Compound concentration 1000.0 nM
Serine/threonine-protein kinase/endoribonuclease IRE1 (Homo sapiens), sequence (O75460 19-977 limits assumed): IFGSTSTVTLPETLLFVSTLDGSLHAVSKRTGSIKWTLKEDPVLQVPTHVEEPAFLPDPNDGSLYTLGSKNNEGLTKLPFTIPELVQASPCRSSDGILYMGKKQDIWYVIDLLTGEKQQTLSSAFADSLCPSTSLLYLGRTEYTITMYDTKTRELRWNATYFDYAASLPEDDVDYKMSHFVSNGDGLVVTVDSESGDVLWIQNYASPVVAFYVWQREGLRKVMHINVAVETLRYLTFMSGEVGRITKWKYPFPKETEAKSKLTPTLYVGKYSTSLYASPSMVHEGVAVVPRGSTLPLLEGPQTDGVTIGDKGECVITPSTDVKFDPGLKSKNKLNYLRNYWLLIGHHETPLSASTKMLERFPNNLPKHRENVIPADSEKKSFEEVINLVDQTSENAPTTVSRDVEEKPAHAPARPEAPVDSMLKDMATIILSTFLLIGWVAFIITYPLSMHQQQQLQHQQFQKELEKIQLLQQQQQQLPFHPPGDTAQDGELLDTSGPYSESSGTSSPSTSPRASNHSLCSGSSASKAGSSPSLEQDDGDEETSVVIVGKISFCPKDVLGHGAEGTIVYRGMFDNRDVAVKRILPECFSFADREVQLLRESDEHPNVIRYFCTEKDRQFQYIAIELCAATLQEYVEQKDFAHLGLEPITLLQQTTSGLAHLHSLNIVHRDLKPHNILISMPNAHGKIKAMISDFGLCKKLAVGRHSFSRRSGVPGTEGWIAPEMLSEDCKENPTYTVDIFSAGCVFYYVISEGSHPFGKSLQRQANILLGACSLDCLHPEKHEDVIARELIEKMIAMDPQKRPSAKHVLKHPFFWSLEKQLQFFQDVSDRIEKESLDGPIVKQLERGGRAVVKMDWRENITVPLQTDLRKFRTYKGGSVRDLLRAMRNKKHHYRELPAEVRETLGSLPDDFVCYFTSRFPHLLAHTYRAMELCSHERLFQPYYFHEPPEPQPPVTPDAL

Beta-2 adrenergic receptor (Homo sapiens), sequence (P07550 whole entry, looked up): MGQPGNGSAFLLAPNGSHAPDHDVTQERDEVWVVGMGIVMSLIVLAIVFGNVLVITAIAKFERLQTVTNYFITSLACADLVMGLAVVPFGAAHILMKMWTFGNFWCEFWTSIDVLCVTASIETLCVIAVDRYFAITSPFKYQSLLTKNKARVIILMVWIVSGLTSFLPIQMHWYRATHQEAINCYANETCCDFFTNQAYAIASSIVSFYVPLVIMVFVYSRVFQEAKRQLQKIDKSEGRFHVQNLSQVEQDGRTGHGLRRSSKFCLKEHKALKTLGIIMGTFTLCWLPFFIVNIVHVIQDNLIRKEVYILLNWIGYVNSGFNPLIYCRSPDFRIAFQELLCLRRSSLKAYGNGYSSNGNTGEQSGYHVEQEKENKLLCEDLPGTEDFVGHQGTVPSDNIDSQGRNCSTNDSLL
Homeodomain-interacting protein kinase 1 (Homo sapiens), sequence (Q86Z02 whole entry, looked up): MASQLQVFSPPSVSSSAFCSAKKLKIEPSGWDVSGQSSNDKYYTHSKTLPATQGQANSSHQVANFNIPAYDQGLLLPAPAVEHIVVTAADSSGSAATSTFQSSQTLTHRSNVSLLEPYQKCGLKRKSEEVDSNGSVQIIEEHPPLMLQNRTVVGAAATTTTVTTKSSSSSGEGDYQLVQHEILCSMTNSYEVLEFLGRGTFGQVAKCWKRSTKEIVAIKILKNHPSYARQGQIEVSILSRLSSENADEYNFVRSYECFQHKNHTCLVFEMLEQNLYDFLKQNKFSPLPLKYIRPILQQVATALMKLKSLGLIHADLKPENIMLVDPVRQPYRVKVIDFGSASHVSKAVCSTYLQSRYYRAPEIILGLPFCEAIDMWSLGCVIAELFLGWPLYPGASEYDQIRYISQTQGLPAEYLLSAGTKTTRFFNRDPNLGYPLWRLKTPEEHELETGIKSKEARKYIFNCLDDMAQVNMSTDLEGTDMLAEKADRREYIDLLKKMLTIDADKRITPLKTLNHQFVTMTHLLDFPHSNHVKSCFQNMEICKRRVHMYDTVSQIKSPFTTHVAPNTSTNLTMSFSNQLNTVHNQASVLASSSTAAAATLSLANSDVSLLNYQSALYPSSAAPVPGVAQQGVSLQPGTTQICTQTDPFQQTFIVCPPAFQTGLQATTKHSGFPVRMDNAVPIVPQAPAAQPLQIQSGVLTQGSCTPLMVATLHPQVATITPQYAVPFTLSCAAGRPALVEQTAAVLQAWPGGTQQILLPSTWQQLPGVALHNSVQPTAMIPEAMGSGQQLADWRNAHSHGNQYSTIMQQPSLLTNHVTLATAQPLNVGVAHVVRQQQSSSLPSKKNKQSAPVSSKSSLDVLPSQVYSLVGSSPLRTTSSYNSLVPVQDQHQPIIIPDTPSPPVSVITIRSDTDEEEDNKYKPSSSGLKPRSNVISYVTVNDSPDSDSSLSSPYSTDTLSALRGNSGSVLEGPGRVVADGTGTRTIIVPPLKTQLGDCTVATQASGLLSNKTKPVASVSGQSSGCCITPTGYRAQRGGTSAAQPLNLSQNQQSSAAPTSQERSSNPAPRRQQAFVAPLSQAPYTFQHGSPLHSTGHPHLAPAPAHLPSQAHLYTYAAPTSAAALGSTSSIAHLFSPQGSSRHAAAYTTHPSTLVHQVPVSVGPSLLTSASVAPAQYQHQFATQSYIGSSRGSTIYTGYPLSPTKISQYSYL
Alpha-1B adrenergic receptor (Rattus norvegicus), sequence (P15823 whole entry, looked up): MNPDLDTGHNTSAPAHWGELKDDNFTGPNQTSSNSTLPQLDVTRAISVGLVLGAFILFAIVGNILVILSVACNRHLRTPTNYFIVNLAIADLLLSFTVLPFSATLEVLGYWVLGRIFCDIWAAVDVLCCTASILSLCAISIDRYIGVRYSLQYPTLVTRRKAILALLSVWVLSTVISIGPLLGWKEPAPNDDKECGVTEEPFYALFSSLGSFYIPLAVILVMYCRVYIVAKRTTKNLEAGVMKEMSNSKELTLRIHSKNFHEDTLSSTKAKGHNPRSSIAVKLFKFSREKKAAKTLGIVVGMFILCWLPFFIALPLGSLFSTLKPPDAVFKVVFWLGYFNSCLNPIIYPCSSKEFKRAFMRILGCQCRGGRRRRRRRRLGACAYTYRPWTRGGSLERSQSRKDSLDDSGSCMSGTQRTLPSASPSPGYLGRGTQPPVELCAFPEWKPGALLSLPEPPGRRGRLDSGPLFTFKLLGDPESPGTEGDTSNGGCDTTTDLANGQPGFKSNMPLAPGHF
Cysteinyl leukotriene receptor 1 (Homo sapiens), sequence (Q9Y271 whole entry): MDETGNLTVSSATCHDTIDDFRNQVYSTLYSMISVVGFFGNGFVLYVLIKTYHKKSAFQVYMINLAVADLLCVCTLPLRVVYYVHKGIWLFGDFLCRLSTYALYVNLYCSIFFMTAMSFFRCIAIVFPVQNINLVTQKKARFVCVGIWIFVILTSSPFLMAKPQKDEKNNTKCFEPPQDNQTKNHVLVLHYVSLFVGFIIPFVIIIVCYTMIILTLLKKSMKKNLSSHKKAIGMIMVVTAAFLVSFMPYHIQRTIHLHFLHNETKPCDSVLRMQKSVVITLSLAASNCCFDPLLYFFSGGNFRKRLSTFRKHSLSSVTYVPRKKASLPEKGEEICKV
RAC-beta serine/threonine-protein kinase (Homo sapiens), sequence (P31751 whole entry): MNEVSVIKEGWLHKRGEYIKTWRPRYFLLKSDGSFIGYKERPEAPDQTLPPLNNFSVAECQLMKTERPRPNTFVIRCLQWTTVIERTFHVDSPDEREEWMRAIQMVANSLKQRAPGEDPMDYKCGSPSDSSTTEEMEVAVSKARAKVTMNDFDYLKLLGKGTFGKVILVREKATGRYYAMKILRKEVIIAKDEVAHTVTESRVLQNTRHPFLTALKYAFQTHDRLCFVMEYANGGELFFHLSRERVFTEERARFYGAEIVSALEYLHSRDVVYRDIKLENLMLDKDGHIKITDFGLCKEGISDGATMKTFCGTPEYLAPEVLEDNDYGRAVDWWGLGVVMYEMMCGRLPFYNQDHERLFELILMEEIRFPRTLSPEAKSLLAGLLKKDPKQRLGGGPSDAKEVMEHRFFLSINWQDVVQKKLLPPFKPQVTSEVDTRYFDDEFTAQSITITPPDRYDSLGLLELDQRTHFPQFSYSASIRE
ATP-sensitive inward rectifier potassium channel 1 isoform X1 (Mesocricetus auratus), sequence (A0A1U8CU73 as listed by the source): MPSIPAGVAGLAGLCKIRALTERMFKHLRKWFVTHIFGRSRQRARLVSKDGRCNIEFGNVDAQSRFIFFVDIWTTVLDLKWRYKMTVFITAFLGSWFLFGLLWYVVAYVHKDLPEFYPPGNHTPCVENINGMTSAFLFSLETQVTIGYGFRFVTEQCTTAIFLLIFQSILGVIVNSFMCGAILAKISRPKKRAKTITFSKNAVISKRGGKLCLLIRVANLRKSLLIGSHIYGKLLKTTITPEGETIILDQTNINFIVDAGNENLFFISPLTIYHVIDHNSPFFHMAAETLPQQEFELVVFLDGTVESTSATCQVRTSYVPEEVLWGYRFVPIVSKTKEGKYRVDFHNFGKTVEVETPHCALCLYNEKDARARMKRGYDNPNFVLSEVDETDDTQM
Sodium-dependent dopamine transporter (Homo sapiens), sequence (Q01959 whole entry): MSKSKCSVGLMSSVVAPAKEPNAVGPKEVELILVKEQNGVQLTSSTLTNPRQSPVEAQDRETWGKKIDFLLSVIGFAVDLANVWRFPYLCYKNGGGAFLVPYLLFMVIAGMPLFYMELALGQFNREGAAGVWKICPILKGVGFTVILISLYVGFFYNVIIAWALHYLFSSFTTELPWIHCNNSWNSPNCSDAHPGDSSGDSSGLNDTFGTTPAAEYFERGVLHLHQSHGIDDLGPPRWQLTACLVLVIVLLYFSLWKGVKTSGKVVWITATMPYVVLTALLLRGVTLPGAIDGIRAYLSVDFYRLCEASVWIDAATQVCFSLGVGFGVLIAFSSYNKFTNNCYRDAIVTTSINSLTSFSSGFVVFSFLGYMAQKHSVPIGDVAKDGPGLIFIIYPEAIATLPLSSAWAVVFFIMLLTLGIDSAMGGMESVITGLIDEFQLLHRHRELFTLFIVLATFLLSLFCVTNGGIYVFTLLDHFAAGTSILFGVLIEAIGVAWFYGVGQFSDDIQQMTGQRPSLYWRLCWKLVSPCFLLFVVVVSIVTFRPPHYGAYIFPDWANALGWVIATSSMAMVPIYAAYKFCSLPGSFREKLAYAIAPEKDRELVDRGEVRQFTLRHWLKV

CS(=O)(=O)c1cc(C2(NC(=O)c3cncc4c3cnn4-c3ccc(F)cc3)CC2)ccn1 [BI 639667]
residual activity [1]: 28%
residual activity [2]: 101%
residual activity ([3]; Compound concentration 0.03 uM): 72%
residual activity ([3]; Compound concentration 0.1 uM): 52%
residual activity ([3]; Compound concentration 0.3 uM): 33%
residual activity ([3]; Compound concentration 1.0 uM): 17%
residual activity ([3]; Compound concentration 3.0 uM): 7.5%
residual activity ([3]; Compound concentration 10.0 uM): 3%
residual activity [4]: 93%
residual activity [5]: 95%
residual activity [6]: 89%
residual activity [7]: 81%
Ki [8]: 1.88 µM
residual activity [9]: 94%
residual activity [10]: 93%
residual activity [11]: 96%
residual activity [12]: 90%
residual activity [13]: 100%
residual activity [14]: 99%
residual activity [15]: 82%
residual activity [16]: 87%
residual activity [17]: 81%
residual activity [18]: 100%

CS(=O)(=O)NCC[C@H](NC(=O)c1cncc2c1cnn2-c1ccc(F)cc1)c1ccnc(S(C)(=O)=O)c1 [BI 9307]
residual activity [19]: 100%
residual activity [20]: 71%
residual activity [21]: 100%
residual activity [22]: 82%
inhibition [23]: -4.31%
IC50 [24]: > 3 µM (not active)
residual activity [25]: 100%
residual activity [26]: 100%
